According to patent US20180250251A1, “Treatment of Patients with Familial Hypercholesterolemia on Lipid-Lowering Therapy” (Gemphire Therapeutics Inc., priority 2016, published 2018):
Marks after values point to notes of the source that are not given here.

Experiments:
[1] = system: patients with HoFH on stable, lipid-lowering therapy; test: COBALT-1 safety and tolerability; type: in vivo, human
Source text: The safety variables include adverse events; safety laboratory parameters (chemistry, hematology, coagulation, and urinalysis) with particular attention to hepatic (e.g., alanine aminotransferase/aspartate aminotransferase, bilirubin, alkaline phosphatase), renal (e.g., blood urea nitrogen, serum creatinine, protein:creatinine ratio, urinalysis sediments, pH, electrolytes), and skeletal muscle (i.e., creatine kinase) toxicities; 12-lead electrocardiograms (ECGs); physical examinations; and vital signs.
Safety will be assessed using the population of all patients who receive any amount of study drug. The assessment of safety will include adverse events, clinical laboratory assessments, ECGs, physical examinations, and vital signs. The safety analysis will be based primarily on the frequency of new or worsening adverse events, laboratory abnormalities, and serious adverse events. Other safety data will be summarized as appropriate.
An adverse event can therefore be any unfavorable and/or unintended sign (including an abnormal laboratory finding), symptom, or disease temporally associated with the use of an investigational medicinal product, whether or not related to the investigational medicinal product. All adverse events, including observed or volunteered problems, complaints, or symptoms, are to be recorded on the appropriate eCRF.
The Investigator will assess the severity (intensity) of each adverse event as mild, moderate, or severe, and will also categorize each adverse event as to its potential relationship to study drug using the categories of Yes or No, as defined below.
Assessment of Severity: Mild—An event that is easily tolerated and generally not interfering with normal daily activities, Moderate—An event that is sufficiently discomforting to interfere with normal daily activities; Severe—An event that is incapacitating with inability to work or perform normal daily activities.
Safety and Tolerability of the treatments were monitored throughout the study.

[2] = system: healthy adult subjects and patients; settings: cited from earlier work
[3] = 8 patients, 12 weeks gemcabene 300, 600, 900 mg/day

CC(C)(CCCCOCCCCC(C)(C)C(=O)O)C(=O)O [Gemcabene, 6-(5-Carboxy-5-methyl-hexyloxy)-2,2-dimethyl-hexanoic acid]
Any Treatment Emergent Adverse Events (TEAEs), Total Reported [1, 3]: 27*
Deaths, Total Reported [1, 3]: 0
Increase in ALT > 3 × ULN, Total Reported [1, 3]: 0
Increase in serum creatinine > 3 × ULN, Total Reported [1, 3]: 0
Increase in total bilirubin > 3 × ULN, Total Reported [1, 3]: 0
Myopathies, Total Reported [1, 3]: 0
Serious Adverse Events (SAEs), Total Reported [1, 3]: 0
TEAEs possibly related to Gemcabene, Total Reported [1, 3]: 8
TEAEs resulting in discontinuation of Gemcabene, Total Reported [1, 3]: 0
safety and tolerability ([1]; in combination with standard of care lipid modifying therapies): safe and well tolerated
intensity of the majority of treatment-emergent adverse events ([2]; across all clinical studies): mild to moderate
deaths ([2]; across all previous studies): no deaths
time for creatinine values to return to baseline after cessation of gemcabene ([2]; human, in vivo): approximately 2 weeks
glomerular filtration rate (GFR) ([2]; iohexol clearance study): slightly decreased
treatment-related SAEs ([2]; prior clinical studies): no treatment-related SAEs reported
tolerability ([2]; prior clinical studies, single doses up to 1500 mg and multiple doses up to 900 mg for up to 12 weeks): well tolerated
serum creatinine and blood urea nitrogen (BUN) ([2]; some studies, appeared within the first 2 to 4 weeks, no further increase over time): Small mean increases
